The target in one test is T1, JAK1 (Homo sapiens, UniProt P23458).
T1 construct: purchased Invitrogen
Briefly: JAK1 enzyme inhibition test (LANCE method). Format: biochemical. The note with it: test compound 1 μM; read-out: Inhibitory rate (%) JAK1 1 μM. The procedure, abridged: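 Reactions ran 1 h at room temperature in HEPES pH 7.5/MgCl2 buffer, with ATP solution at 150 μM and JAK1 and ULight peptide solutions at 187.5 ng/mL and 300 nM. Reactions were stopped with EDTA, and phosphorylation was read by Eu antibody time-resolved fluorescence at 665 nm. Inhibition was scaled to a no-enzyme control as 100%.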

The target of a further test is T2, Tyk2 (Homo sapiens, UniProt P29597).
T2 construct: purchased Invitrogen
T2 sequence (P29597 whole entry): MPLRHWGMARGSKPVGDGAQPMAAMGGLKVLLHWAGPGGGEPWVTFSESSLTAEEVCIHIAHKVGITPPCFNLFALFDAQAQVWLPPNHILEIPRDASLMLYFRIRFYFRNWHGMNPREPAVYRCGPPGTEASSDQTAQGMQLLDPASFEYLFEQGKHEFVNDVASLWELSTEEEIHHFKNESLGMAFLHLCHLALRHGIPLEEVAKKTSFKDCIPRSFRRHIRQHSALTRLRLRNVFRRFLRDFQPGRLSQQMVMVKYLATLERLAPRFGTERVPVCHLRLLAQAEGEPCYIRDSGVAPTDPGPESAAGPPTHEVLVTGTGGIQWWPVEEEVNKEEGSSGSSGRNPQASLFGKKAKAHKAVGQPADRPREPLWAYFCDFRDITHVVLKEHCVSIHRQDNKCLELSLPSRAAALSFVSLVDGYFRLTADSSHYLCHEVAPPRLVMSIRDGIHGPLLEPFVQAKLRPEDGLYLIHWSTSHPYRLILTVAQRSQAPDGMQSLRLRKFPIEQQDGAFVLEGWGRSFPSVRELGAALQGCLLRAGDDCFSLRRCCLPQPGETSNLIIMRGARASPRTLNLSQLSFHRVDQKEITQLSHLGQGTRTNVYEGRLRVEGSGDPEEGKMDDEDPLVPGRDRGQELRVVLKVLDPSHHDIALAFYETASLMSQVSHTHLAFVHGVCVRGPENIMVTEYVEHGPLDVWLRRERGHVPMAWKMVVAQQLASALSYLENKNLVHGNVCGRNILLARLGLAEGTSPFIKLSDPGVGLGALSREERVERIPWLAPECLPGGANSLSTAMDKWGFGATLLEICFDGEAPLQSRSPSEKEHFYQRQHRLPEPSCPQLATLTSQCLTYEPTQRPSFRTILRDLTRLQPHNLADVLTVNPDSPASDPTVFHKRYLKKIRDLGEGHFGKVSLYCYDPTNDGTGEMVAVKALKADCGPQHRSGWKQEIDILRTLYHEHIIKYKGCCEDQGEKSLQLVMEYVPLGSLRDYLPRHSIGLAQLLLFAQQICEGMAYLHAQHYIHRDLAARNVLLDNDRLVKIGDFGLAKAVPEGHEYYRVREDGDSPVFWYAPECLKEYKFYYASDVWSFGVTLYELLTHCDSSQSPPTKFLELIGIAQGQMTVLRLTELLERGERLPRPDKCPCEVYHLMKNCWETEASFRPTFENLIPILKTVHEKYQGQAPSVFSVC
Briefly: Tyk2 enzyme inhibition test (LANCE method). Format: biochemical. To be noted: test compound 1 μM; read-out: Inhibitory rate (%) Tyk2 1 μM. The gist of the method:
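LANCE TR-FRET read-out (ex 340/em 665 nm, 100 μs delay) of ULight-JAK1 phosphorylation, with no-enzyme wells as 100% inhibition. Reaction run 1 h at room temperature in pH 7.5 HEPES buffer; enzyme 375 ng/mL, substrate 300 nM and ATP 30 μM are solution concentrations before mixing.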

Structures are written as SMILES.

T1 sequence (P23458 whole entry): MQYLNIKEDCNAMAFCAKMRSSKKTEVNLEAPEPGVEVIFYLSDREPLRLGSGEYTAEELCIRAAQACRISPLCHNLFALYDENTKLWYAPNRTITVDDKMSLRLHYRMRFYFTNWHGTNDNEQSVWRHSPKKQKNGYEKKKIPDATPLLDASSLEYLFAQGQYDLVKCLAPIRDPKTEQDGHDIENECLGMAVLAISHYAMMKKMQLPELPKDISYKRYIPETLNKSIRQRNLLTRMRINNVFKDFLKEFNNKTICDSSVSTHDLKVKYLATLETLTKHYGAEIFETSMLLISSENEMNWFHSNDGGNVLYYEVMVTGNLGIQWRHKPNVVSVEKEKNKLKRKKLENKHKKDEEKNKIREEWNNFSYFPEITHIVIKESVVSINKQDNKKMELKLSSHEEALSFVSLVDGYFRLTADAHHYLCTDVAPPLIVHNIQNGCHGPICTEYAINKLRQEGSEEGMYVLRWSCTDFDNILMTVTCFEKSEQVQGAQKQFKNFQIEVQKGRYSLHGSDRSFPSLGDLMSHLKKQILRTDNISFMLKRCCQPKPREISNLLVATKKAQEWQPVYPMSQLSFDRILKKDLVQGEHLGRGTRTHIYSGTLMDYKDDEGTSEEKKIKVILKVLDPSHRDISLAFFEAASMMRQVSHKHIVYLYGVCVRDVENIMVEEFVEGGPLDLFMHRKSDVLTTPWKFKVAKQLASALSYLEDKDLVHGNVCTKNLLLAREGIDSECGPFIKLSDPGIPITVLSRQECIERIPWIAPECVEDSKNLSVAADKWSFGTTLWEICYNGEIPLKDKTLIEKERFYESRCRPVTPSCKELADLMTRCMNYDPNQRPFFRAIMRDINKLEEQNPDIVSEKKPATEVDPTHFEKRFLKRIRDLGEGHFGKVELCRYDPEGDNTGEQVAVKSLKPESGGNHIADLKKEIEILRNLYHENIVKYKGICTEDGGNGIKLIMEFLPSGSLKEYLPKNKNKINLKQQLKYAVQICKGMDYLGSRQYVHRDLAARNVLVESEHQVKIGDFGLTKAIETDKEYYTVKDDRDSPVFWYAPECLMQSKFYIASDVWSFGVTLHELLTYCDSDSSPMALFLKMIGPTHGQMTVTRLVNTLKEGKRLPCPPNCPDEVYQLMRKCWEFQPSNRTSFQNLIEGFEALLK

Regarding `O=c1[nH]cc(Cl)c2c1c(-c1ccc(N3CCOCC3)cc1)nn2-c1c(F)cccc1F` [Example 161, 7-chloro-1-(2,6-difluorophenyl)-3-(4-(morpholin-4-yl)phenyl)-1,5-dihydro-4H-pyrazolo[4,3-c]pyridin-4-one], the inhibition at 1 µM is 79% at JAK1 and 99% on Tyk2.

(Values after patent US9371320B2, “Heterocyclic compound” (TAKEDA PHARMACEUTICAL COMPANY LIMITED, priority 2012, dated 2016).)
